pIC50: −log10 of the molar value.
What was measured:
FLT1 = target: T1, FLT1 (Homo sapiens, UniProt P17948); assay: Kinase profiling at 10 μM (Eurofins); format: biochemical; conditions: read-out: Inhibitory activity
T1 construct: purchased Eurofins Pharma Discovery (KinaseProfiler); IC50 values by Reaction Biology Corp

FLT3(D835Y) = FLT3(D835Y) (Homo sapiens, UniProt P36888, D835Y); assay: In vitro kinase assay, IC50 (Reaction Biology Corp.); format: biochemical; set-up: purchased Reaction Biology Corp. (Malvern, PA, USA)

T1 sequence (P17948 27-1338): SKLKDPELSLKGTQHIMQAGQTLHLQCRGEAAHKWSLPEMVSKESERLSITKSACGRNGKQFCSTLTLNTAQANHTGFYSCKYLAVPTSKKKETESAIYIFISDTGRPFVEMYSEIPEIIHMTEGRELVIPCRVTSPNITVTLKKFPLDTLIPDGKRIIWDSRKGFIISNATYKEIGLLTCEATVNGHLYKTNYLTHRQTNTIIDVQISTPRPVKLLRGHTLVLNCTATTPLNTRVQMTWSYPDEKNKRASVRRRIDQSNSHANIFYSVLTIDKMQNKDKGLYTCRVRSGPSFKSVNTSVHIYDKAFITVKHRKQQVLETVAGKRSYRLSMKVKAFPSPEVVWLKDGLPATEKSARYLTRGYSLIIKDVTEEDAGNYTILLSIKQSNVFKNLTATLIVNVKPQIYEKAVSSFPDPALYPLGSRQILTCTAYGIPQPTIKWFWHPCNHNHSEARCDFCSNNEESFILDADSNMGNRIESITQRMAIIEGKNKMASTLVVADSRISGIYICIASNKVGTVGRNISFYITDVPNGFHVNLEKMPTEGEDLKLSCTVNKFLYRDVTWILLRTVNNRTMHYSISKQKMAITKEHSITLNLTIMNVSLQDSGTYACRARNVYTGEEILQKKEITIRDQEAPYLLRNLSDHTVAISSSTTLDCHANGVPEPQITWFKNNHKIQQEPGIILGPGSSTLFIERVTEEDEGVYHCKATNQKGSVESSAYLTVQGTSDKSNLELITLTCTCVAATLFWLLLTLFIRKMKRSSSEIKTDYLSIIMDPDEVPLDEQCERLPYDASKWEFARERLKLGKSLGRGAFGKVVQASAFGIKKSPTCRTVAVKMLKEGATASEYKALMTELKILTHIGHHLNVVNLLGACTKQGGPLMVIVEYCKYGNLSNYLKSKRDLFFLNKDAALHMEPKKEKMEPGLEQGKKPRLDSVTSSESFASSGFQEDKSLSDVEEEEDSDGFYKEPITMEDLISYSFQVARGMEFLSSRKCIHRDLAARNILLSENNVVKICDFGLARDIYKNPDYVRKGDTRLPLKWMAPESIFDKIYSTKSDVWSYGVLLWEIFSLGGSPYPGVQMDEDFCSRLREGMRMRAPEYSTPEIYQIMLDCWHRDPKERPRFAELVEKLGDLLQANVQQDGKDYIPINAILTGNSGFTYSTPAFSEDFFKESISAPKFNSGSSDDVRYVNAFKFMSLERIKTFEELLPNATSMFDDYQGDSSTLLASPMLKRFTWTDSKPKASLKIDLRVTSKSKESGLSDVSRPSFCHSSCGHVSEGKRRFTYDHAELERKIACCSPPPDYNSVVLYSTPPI

Brc1ccc(-c2cnc(Nc3cccc4ccccc34)o2)cc1 [AIU2001, 5-(4-bromophenyl)-N-(naphthalen-1-yl) oxazol-2-amine]
inhibition at 10 µM (FLT1): 44% | pIC50 (FLT3(D835Y)): 6.97
